In PubChem BioAssay AID328 (DTP/NCI, 2004):
Inconclusive results and toxic doses are left out.

What was measured:
[1] = system: BDF1 mice, P388 leukemia ip; experiment: NCI In Vivo Anticancer Drug Screen. Data for tumor model P388 Leukemia (intraperitoneal) in B6D2F1 (BDF1) mice; conditions: endpoint: mean survival time, higher = longer survival
Summary of the method: (§1)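 Survival ratio, drug arm over vehicle arm, in mice with a transplanted tumour.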

[2] = system: BDF1 mice, P388 leukemia ip, median survival T/C; experiment: as above; conditions: endpoint: median survival time, higher = longer survival
Summary of the method: as §1

CC1=C(C)C(=O)O[C@@H]([C@](C)(O)[C@]2(O)CC[C@@]3(O)[C@@H]4C[C@H]5O[C@]56CC=CC(=O)[C@]6(C)[C@H]4CC[C@]23C)C1
T/C ([1]; dose: 50.0 mg/kg/injection, schedule: Q02DX003 (ip), vehicle: saline): 114 % of control
T/C ([1]; dose: 100.0 mg/kg/injection, schedule: Q02DX003 (ip), vehicle: saline): 117 % of control

CCN(CC)CCCC(C)NC(=O)c1cccc2c(N)cccc12 (stereo not given)
T/C ([2]; dose: 25.0 mg/kg/injection, schedule: Q04DX003 (ip), vehicle: water): 91 % of control
T/C ([2]; dose: 50.0 mg/kg/injection, schedule: Q04DX003 (ip), vehicle: water): 106 % of control
T/C ([2]; dose: 100.0 mg/kg/injection, schedule: Q04DX003 (ip), vehicle: water): 97 % of control
T/C ([2]; dose: 200.0 mg/kg/injection, schedule: Q04DX003 (ip), vehicle: water): 100 % of control
T/C ([2]; dose: 400.0 mg/kg/injection, schedule: Q04DX003 (ip), vehicle: water): 104 % of control
T/C ([1]; dose: 25.0 mg/kg/injection, schedule: Q01DX009 (ip), vehicle: water): 98 % of control
T/C ([1]; dose: 50.0 mg/kg/injection, schedule: Q01DX009 (ip), vehicle: water): 106 % of control
T/C ([1]; dose: 100.0 mg/kg/injection, schedule: Q01DX009 (ip), vehicle: water): 93 % of control
T/C ([1]; dose: 200.0 mg/kg/injection, schedule: Q01DX009 (ip), vehicle: water): 91 % of control
T/C ([1]; dose: 400.0 mg/kg/injection, schedule: Q01DX009 (ip), vehicle: water): 110 % of control

CCC1(O)CC(OC2CC(N(C)C)C(OC3CC4OC5CC(=O)C(C)OC5OC4C(C)O3)C(C)O2)c2c(cc3c(c2O)C(=O)c2c(O)ccc(O)c2C3=O)C1C(=O)OC (stereo not given)
T/C ([2]; dose: 0.75 mg/kg/injection, schedule: Q01DX001 (ip), vehicle: saline): 104 % of control
T/C ([2]; dose: 0.86 mg/kg/injection, schedule: Q04DX003 (ip), vehicle: water): 121 % of control
T/C ([2]; dose: 1.25 mg/kg/injection, schedule: Q01DX001 (ip), vehicle: saline): 114 % of control
T/C ([2]; dose: 1.3 mg/kg/injection, schedule: Q04DX003 (ip), vehicle: water): 157 % of control
T/C ([2]; dose: 1.5 mg/kg/injection, schedule: Q01DX001 (ip), vehicle: saline): 109 % of control
T/C ([2]; dose: 1.73 mg/kg/injection, schedule: Q04DX003 (ip), vehicle: water): 155 % of control
T/C ([2]; dose: 2.16 mg/kg/injection, schedule: Q04DX003 (ip), vehicle: water): 191 % of control
T/C ([2]; dose: 2.4 mg/kg/injection, schedule: Q04DX003 (ip), vehicle: water): 165 % of control
T/C ([2]; dose: 5.0 mg/kg/injection, schedule: Q01DX001 (ip), vehicle: saline): 166 % of control
T/C ([2]; dose: 10.0 mg/kg/injection, schedule: Q01DX001 (ip), vehicle: saline): 195 % of control
T/C ([1]; dose: 0.09 mg/kg/injection, schedule: Q01DX010 (ip), vehicle: saline): 111 % of control
T/C ([1]; dose: 0.38 mg/kg/injection, schedule: Q01DX010 (ip), vehicle: saline): 95 % of control
T/C ([1]; dose: 1.5 mg/kg/injection, schedule: Q01DX010 (ip), vehicle: saline): 87 % of control

Cc1cc(C)c(N)c(C)c1N
T/C ([2]; dose: 25.0 mg/kg/injection, schedule: Q01DX009 (ip), vehicle: Klucel (hydroxypropylcellulose) (HPC)): 118 % of control
T/C ([2]; dose: 50.0 mg/kg/injection, schedule: Q01DX009 (ip), vehicle: Klucel (hydroxypropylcellulose) (HPC)): 95 % of control
T/C ([2]; dose: 100.0 mg/kg/injection, schedule: Q04DX003 (ip), vehicle: other): 105 % of control
T/C ([2]; dose: 200.0 mg/kg/injection, schedule: Q04DX003 (ip), vehicle: other): 100 % of control
T/C ([2]; dose: 400.0 mg/kg/injection, schedule: Q04DX003 (ip), vehicle: other): 105 % of control
